Test results published in ChEMBL document CHEMBL1909294, “Translating clinical findings into knowledge in drug safety evaluation--drug induced liver injury prediction system (DILIps)” (PLoS Comput Biol, 2011).

Experiments:
[1] = tested on: Hepatotoxicity;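 for HepSE Combined Scores: combined hepatic side effect score as listed in the training data of the Drug Induced Liver Injury Prediction System (DILIps)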;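 for HepSE cirrhosis: cirrhosis hepatic side effect score taken from the DILIps (drug-induced liver injury prediction) training set; call rule not given here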;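 for HepSE hepatic necrosis: score of hepatic side effects for hepatic necrosis, drawn from the training data of DILIps, a prediction system for drug-induced liver injury; call rule not given here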;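 for HepSE jaundice: Jaundice-related hepatic side-effect score drawn from the training data of the DILIps (drug-induced liver injury prediction system); call rule not given here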;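 for HepSE liver fatty: hepatic side effect score for fatty liver, taken from the DILIps training set for predicting drug-induced liver injury; call rule not given here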;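 for HepSE liver function tests abnormal: hepatic side effect score taken from the DILIps (drug-induced liver injury prediction system) training data, here covering abnormal liver function test findings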
[2] = tested on: Hepatotoxicity; remark: listed apart in the source;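 for HepSE Combined Scores: combined hepatic side effect score as listed in the training data of the Drug Induced Liver Injury Prediction System (DILIps)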;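 for HepSE cirrhosis: cirrhosis hepatic side effect score taken from the DILIps (drug-induced liver injury prediction) training set; call rule not given here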;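 for HepSE hepatic necrosis: score of hepatic side effects for hepatic necrosis, drawn from the training data of DILIps, a prediction system for drug-induced liver injury; call rule not given here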;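 for HepSE jaundice: Jaundice-related hepatic side-effect score drawn from the training data of the DILIps (drug-induced liver injury prediction system); call rule not given here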;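 for HepSE liver fatty: hepatic side effect score for fatty liver, taken from the DILIps training set for predicting drug-induced liver injury; call rule not given here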;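 for HepSE liver function tests abnormal: hepatic side effect score taken from the DILIps (drug-induced liver injury prediction system) training data, here covering abnormal liver function test findings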
[3] = tested on: Hepatotoxicity; remark: listed apart in the source;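 for HepSE Combined Scores: combined hepatic side effect score as listed in the training data of the Drug Induced Liver Injury Prediction System (DILIps)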;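 for HepSE cirrhosis: cirrhosis hepatic side effect score taken from the DILIps (drug-induced liver injury prediction) training set; call rule not given here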;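 for HepSE hepatic necrosis: score of hepatic side effects for hepatic necrosis, drawn from the training data of DILIps, a prediction system for drug-induced liver injury; call rule not given here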;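 for HepSE jaundice: Jaundice-related hepatic side-effect score drawn from the training data of the DILIps (drug-induced liver injury prediction system); call rule not given here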;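 for HepSE liver fatty: hepatic side effect score for fatty liver, taken from the DILIps training set for predicting drug-induced liver injury; call rule not given here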;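 for HepSE liver function tests abnormal: hepatic side effect score taken from the DILIps (drug-induced liver injury prediction system) training data, here covering abnormal liver function test findings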
[4] = tested on: Hepatotoxicity; remark: listed apart in the source;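 for HepSE Combined Scores: combined hepatic side effect score as listed in the training data of the Drug Induced Liver Injury Prediction System (DILIps)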;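 for HepSE cirrhosis: cirrhosis hepatic side effect score taken from the DILIps (drug-induced liver injury prediction) training set; call rule not given here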;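 for HepSE hepatic necrosis: score of hepatic side effects for hepatic necrosis, drawn from the training data of DILIps, a prediction system for drug-induced liver injury; call rule not given here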;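 for HepSE jaundice: Jaundice-related hepatic side-effect score drawn from the training data of the DILIps (drug-induced liver injury prediction system); call rule not given here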;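 for HepSE liver function tests abnormal: hepatic side effect score taken from the DILIps (drug-induced liver injury prediction system) training data, here covering abnormal liver function test findings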
[5] = tested on: Hepatotoxicity; remark: listed apart in the source
[6] = tested on: Hepatotoxicity; remark: listed apart in the source
[7] = tested on: Hepatotoxicity; remark: listed apart in the source
[8] = tested on: Hepatotoxicity; remark: listed apart in the source
[9] = tested on: Hepatotoxicity; remark: listed apart in the source
[10] = tested on: Hepatotoxicity; remark: listed apart in the source
[11] = tested on: Hepatotoxicity; remark: listed apart in the source
[12] = tested on: Hepatotoxicity; remark: listed apart in the source
[13] = tested on: Hepatotoxicity; remark: listed apart in the source
[14] = tested on: Hepatotoxicity; remark: listed apart in the source

## COCC1=C(C(=O)O)N2C(=O)[C@@H](NC(=O)/C(=N\OC)c3csc(N)n3)[C@H]2SC1 [CEFPODOXIME]
[1]
  HepSE_jaundice: 0
[2]
  HepSE_liver function tests abnormal: 0
[3]
  HepSE_cirrhosis: 0
[4]
  HepSE_Combined Scores: 0
[5]
  HepSE_hepatic necrosis: 0
[6]
  HepSE_liver fatty: 0
[7]
  HepSE_cholecystitis: 0
[8]
  HepSE_liver disease: 0
[9]
  HepSE_hepatic failure: 0
[10]
  HepSE_cholelithiasis: 0
[11]
  HepSE_hepatitis: 0
[12]
  HepSE_elevated liver function tests: 0
[13]
  HepSE_hepatomegaly: 0
[14]
  HepSE_bilirubinemia: 0

## CC=CC1=C(C(=O)O)N2C(=O)[C@@H](NC(=O)[C@H](N)c3ccc(O)cc3)[C@H]2SC1 [CEFPROZIL]
[1]
  HepSE_jaundice: 1
[2]
  HepSE_liver function tests abnormal: 0
[3]
  HepSE_cirrhosis: 0
[4]
  HepSE_Combined Scores: 1
[5]
  HepSE_hepatic necrosis: 0
[6]
  HepSE_liver fatty: 0
[7]
  HepSE_cholecystitis: 0
[8]
  HepSE_liver disease: 0
[9]
  HepSE_hepatic failure: 0
[10]
  HepSE_cholelithiasis: 0
[11]
  HepSE_hepatitis: 0
[12]
  HepSE_elevated liver function tests: 0
[13]
  HepSE_hepatomegaly: 0
[14]
  HepSE_bilirubinemia: 0

## CC(C)(O/N=C(\C(=O)N[C@@H]1C(=O)N2C(C(=O)[O-])=C(C[n+]3ccccc3)CS[C@H]12)c1csc(N)n1)C(=O)O [CEFTAZIDIME]
[1]
  HepSE_jaundice: 1
[2]
  HepSE_liver function tests abnormal: 0
[3]
  HepSE_cirrhosis: 0
[4]
  HepSE_Combined Scores: 2
[5]
  HepSE_hepatic necrosis: 0
[6]
  HepSE_liver fatty: 0
[7]
  HepSE_cholecystitis: 0
[8]
  HepSE_liver disease: 0
[9]
  HepSE_hepatic failure: 0
[10]
  HepSE_cholelithiasis: 0
[11]
  HepSE_hepatitis: 0
[12]
  HepSE_elevated liver function tests: 0
[13]
  HepSE_hepatomegaly: 0
[14]
  HepSE_bilirubinemia: 1

## Nc1nc(/C(=C/CC(=O)O)C(=O)N[C@@H]2C(=O)N3C(C(=O)O)=CCS[C@H]23)cs1 [CEFTIBUTEN]
[1]
  HepSE_jaundice: 1
[2]
  HepSE_liver function tests abnormal: 0
[3]
  HepSE_cirrhosis: 0
[4]
  HepSE_Combined Scores: 1
[5]
  HepSE_hepatic necrosis: 0
[6]
  HepSE_liver fatty: 0
[7]
  HepSE_cholecystitis: 0
[8]
  HepSE_liver disease: 0
[9]
  HepSE_hepatic failure: 0
[10]
  HepSE_cholelithiasis: 0
[11]
  HepSE_hepatitis: 0
[12]
  HepSE_elevated liver function tests: 0
[13]
  HepSE_hepatomegaly: 0
[14]
  HepSE_bilirubinemia: 0

## CO/N=C(\C(=O)N[C@@H]1C(=O)N2C(C(=O)O)=CCS[C@H]12)c1csc(N)n1 [CEFTIZOXIME]
[1]
  HepSE_jaundice: 0
[2]
  HepSE_liver function tests abnormal: 0
[3]
  HepSE_cirrhosis: 0
[4]
  HepSE_Combined Scores: 0
[5]
  HepSE_hepatic necrosis: 0
[6]
  HepSE_liver fatty: 0
[7]
  HepSE_cholecystitis: 0
[8]
  HepSE_liver disease: 0
[9]
  HepSE_hepatic failure: 0
[10]
  HepSE_cholelithiasis: 0
[11]
  HepSE_hepatitis: 0
[12]
  HepSE_elevated liver function tests: 0
[13]
  HepSE_hepatomegaly: 0
[14]
  HepSE_bilirubinemia: 0

## CO/N=C(\C(=O)N[C@@H]1C(=O)N2C(C(=O)O)=C(CSc3nc(=O)c(=O)[nH]n3C)CS[C@H]12)c1csc(N)n1 [CEFTRIAXONE]
[1]
  HepSE_jaundice: 0
[2]
  HepSE_liver function tests abnormal: 0
[3]
  HepSE_cirrhosis: 0
[4]
  HepSE_Combined Scores: 0
[5]
  HepSE_hepatic necrosis: 0
[6]
  HepSE_liver fatty: 0
[7]
  HepSE_cholecystitis: 0
[8]
  HepSE_liver disease: 0
[9]
  HepSE_hepatic failure: 0
[10]
  HepSE_cholelithiasis: 0
[11]
  HepSE_hepatitis: 0
[12]
  HepSE_elevated liver function tests: 0
[13]
  HepSE_hepatomegaly: 0
[14]
  HepSE_bilirubinemia: 0

## CO/N=C(\C(=O)N[C@@H]1C(=O)N2C(C(=O)O)=C(COC(N)=O)CS[C@H]12)c1ccco1 [CEFUROXIME]
[1]
  HepSE_jaundice: 1
[2]
  HepSE_liver function tests abnormal: 0
[3]
  HepSE_cirrhosis: 0
[4]
  HepSE_Combined Scores: 2
[5]
  HepSE_hepatic necrosis: 0
[6]
  HepSE_liver fatty: 0
[7]
  HepSE_cholecystitis: 0
[8]
  HepSE_liver disease: 0
[9]
  HepSE_hepatic failure: 0
[10]
  HepSE_cholelithiasis: 0
[11]
  HepSE_hepatitis: 1
[12]
  HepSE_elevated liver function tests: 0
[13]
  HepSE_hepatomegaly: 0
[14]
  HepSE_bilirubinemia: 0

## Cc1ccc(-c2cc(C(F)(F)F)nn2-c2ccc(S(N)(=O)=O)cc2)cc1 [CELECOXIB]
[1]; Liver
  HepSE_jaundice: 1
[2]; Liver
  HepSE_liver function tests abnormal: 1
[3]; Liver
  HepSE_cirrhosis: 0
[4]; Liver
  HepSE_Combined Scores: 5
[5]; Liver
  HepSE_hepatic necrosis: 0
[6]; Liver
  HepSE_liver fatty: 0
[7]; Liver
  HepSE_cholecystitis: 0
[8]; Liver
  HepSE_liver disease: 0
[9]; Liver
  HepSE_hepatic failure: 1
[10]; Liver
  HepSE_cholelithiasis: 1
[11]; Liver
  HepSE_hepatitis: 1
[12]; Liver
  HepSE_elevated liver function tests: 0
[13]; Liver
  HepSE_hepatomegaly: 0
[14]; Liver
  HepSE_bilirubinemia: 0

## CC1=C(C(=O)O)N2C(=O)[C@@H](NC(=O)[C@H](N)C3=CCC=CC3)[C@H]2SC1 [CEPHRADINE]
[1]
  HepSE_jaundice: 0
[2]
  HepSE_liver function tests abnormal: 0
[3]
  HepSE_cirrhosis: 0
[4]
  HepSE_Combined Scores: 0
[5]
  HepSE_hepatic necrosis: 0
[6]
  HepSE_liver fatty: 0
[7]
  HepSE_cholecystitis: 0
[8]
  HepSE_liver disease: 0
[9]
  HepSE_hepatic failure: 0
[10]
  HepSE_cholelithiasis: 0
[11]
  HepSE_hepatitis: 0
[12]
  HepSE_elevated liver function tests: 0
[13]
  HepSE_hepatomegaly: 0
[14]
  HepSE_bilirubinemia: 0

## COCc1c(C(C)C)nc(C(C)C)c(/C=C/[C@@H](O)C[C@@H](O)CC(=O)O)c1-c1ccc(F)cc1 [CERIVASTATIN]
[1]
  HepSE_jaundice: 1
[2]
  HepSE_liver function tests abnormal: 0
[3]
  HepSE_cirrhosis: 1
[4]
  HepSE_Combined Scores: 4
[5]
  HepSE_hepatic necrosis: 1
[6]
  HepSE_liver fatty: 0
[7]
  HepSE_cholecystitis: 0
[8]
  HepSE_liver disease: 0
[9]
  HepSE_hepatic failure: 0
[10]
  HepSE_cholelithiasis: 0
[11]
  HepSE_hepatitis: 1
[12]
  HepSE_elevated liver function tests: 0
[13]
  HepSE_hepatomegaly: 0
[14]
  HepSE_bilirubinemia: 0

## O=C(O)CCCc1ccc(N(CCCl)CCCl)cc1 [CHLORAMBUCIL]
[1]
  HepSE_jaundice: 1
[2]
  HepSE_liver function tests abnormal: 0
[3]
  HepSE_cirrhosis: 0
[4]
  HepSE_Combined Scores: 1
[5]
  HepSE_hepatic necrosis: 0
[6]
  HepSE_liver fatty: 0
[7]
  HepSE_cholecystitis: 0
[8]
  HepSE_liver disease: 0
[9]
  HepSE_hepatic failure: 0
[10]
  HepSE_cholelithiasis: 0
[11]
  HepSE_hepatitis: 0
[12]
  HepSE_elevated liver function tests: 0
[13]
  HepSE_hepatomegaly: 0
[14]
  HepSE_bilirubinemia: 0

## O=C(N[C@H](CO)[C@H](O)c1ccc([N+](=O)[O-])cc1)C(Cl)Cl [CHLORAMPHENICOL]
[1]
  HepSE_jaundice: 0
[2]
  HepSE_liver function tests abnormal: 0
[3]
  HepSE_cirrhosis: 0
[4]
  HepSE_Combined Scores: 0
[5]
  HepSE_hepatic necrosis: 0
[6]
  HepSE_liver fatty: 0
[7]
  HepSE_cholecystitis: 0
[8]
  HepSE_liver disease: 0
[9]
  HepSE_hepatic failure: 0
[10]
  HepSE_cholelithiasis: 0
[11]
  HepSE_hepatitis: 0
[12]
  HepSE_elevated liver function tests: 0
[13]
  HepSE_hepatomegaly: 0
[14]
  HepSE_bilirubinemia: 0

## CNC1=Nc2ccc(Cl)cc2C(c2ccccc2)=[N+]([O-])C1 [CHLORDIAZEPOXIDE]
[1]
  HepSE_jaundice: 1
[2]
  HepSE_liver function tests abnormal: 0
[3]
  HepSE_cirrhosis: 0
[4]
  HepSE_Combined Scores: 1
[5]
  HepSE_hepatic necrosis: 0
[6]
  HepSE_liver fatty: 0
[7]
  HepSE_cholecystitis: 0
[8]
  HepSE_liver disease: 0
[9]
  HepSE_hepatic failure: 0
[10]
  HepSE_cholelithiasis: 0
[11]
  HepSE_hepatitis: 0
[12]
  HepSE_elevated liver function tests: 0
[13]
  HepSE_hepatomegaly: 0
[14]
  HepSE_bilirubinemia: 0

## [H]/N=C(\N/C(=N/[H])NCCCCCCNC(=N)NC(=N)Nc1ccc(Cl)cc1)Nc1ccc(Cl)cc1 [CHLORHEXIDINE]
[1]
  HepSE_jaundice: 0
[2]
  HepSE_liver function tests abnormal: 0
[3]
  HepSE_cirrhosis: 0
[4]
  HepSE_Combined Scores: 0
[5]
  HepSE_hepatic necrosis: 0
[6]
  HepSE_liver fatty: 0
[7]
  HepSE_cholecystitis: 0
[8]
  HepSE_liver disease: 0
[9]
  HepSE_hepatic failure: 0
[10]
  HepSE_cholelithiasis: 0
[11]
  HepSE_hepatitis: 0
[12]
  HepSE_elevated liver function tests: 0
[13]
  HepSE_hepatomegaly: 0
[14]
  HepSE_bilirubinemia: 0

## CCN(CC)CCOC(=O)c1ccc(N)cc1Cl [CHLOROPROCAINE]
[1]
  HepSE_jaundice: 0
[2]
  HepSE_liver function tests abnormal: 0
[3]
  HepSE_cirrhosis: 0
[4]
  HepSE_Combined Scores: 0
[5]
  HepSE_hepatic necrosis: 0
[6]
  HepSE_liver fatty: 0
[7]
  HepSE_cholecystitis: 0
[8]
  HepSE_liver disease: 0
[9]
  HepSE_hepatic failure: 0
[10]
  HepSE_cholelithiasis: 0
[11]
  HepSE_hepatitis: 0
[12]
  HepSE_elevated liver function tests: 0
[13]
  HepSE_hepatomegaly: 0
[14]
  HepSE_bilirubinemia: 0

## CCN(CC)CCCC(C)Nc1ccnc2cc(Cl)ccc12 (stereo not drawn) [CHLOROQUINE]
[1]
  HepSE_jaundice: 0
[2]
  HepSE_liver function tests abnormal: 0
[3]
  HepSE_cirrhosis: 0
[4]
  HepSE_Combined Scores: 0
[5]
  HepSE_hepatic necrosis: 0
[6]
  HepSE_liver fatty: 0
[7]
  HepSE_cholecystitis: 0
[8]
  HepSE_liver disease: 0
[9]
  HepSE_hepatic failure: 0
[10]
  HepSE_cholelithiasis: 0
[11]
  HepSE_hepatitis: 0
[12]
  HepSE_elevated liver function tests: 0
[13]
  HepSE_hepatomegaly: 0
[14]
  HepSE_bilirubinemia: 0

## NS(=O)(=O)c1cc2c(cc1Cl)N=CNS2(=O)=O [CHLOROTHIAZIDE]
[1]
  HepSE_jaundice: 1
[2]
  HepSE_liver function tests abnormal: 0
[3]
  HepSE_cirrhosis: 0
[4]
  HepSE_Combined Scores: 1
[5]
  HepSE_hepatic necrosis: 0
[6]
  HepSE_liver fatty: 0
[7]
  HepSE_cholecystitis: 0
[8]
  HepSE_liver disease: 0
[9]
  HepSE_hepatic failure: 0
[10]
  HepSE_cholelithiasis: 0
[11]
  HepSE_hepatitis: 0
[12]
  HepSE_elevated liver function tests: 0
[13]
  HepSE_hepatomegaly: 0
[14]
  HepSE_bilirubinemia: 0
